*1 amine or outer side, *2 acyl side, *3 side chain or, on linkers, in order; H or OH if unused. Where a SMILES comes first, the peptide text is derived from it. [ ]: non-standard residue; d: D form. The star is where a group is joined. ξ: configuration not given here. Butanoyl(4-(4-NO2Ph)) = O=C(CCCc1ccc([N+](=O)[O-])cc1)*; DOTA = O=C(O)CN1CCN(CC(=O)O)CCN(CC(=O)*)CCN(CC(=O)O)CC1; ξAla(9-anthryl) = NC(Cc1c2ccccc2cc2ccccc12)C(=O)O; X2 = O=C(NC(CCCCN*)C(=O)O)NC(CC(F)C(=O)O)C(=O)O; X1 = O=C(C1CCC(CN[*:1])CC1)[*:2]; ξK = NCCCCC(N)C(=O)O
System: NRG-mice bearing LNCaP tumors
Test: Biodistribution (and PET/SPECT imaging) in NRG-mice bearing LNCaP tumors
Assay type: in vivo
Conditions: Avg
Summary of the method: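 LNCaP xenografts (~10 million cells, left dorsal flank) grown 4-6 weeks to 200-600 mm^3 in NRG mice. Tail-vein injection of 4-6 MBq ^68Ga or 18.5 MBq ^177Lu tracer under isoflurane; CT then 10-min static PET or 1-h SPECT. Biodistribution by gamma counting of weighed organs, expressed as %ID/g.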

Biodistribution: Adrenal gland (1 h p.i.) [% ID/g]	Biodistribution: Blood (1 h p.i.) [% ID/g]	Biodistribution: Bone (1 h p.i.) [% ID/g]	Biodistribution: Brain (1 h p.i.) [% ID/g]	Biodistribution: Fat (1 h p.i.) [% ID/g]	Biodistribution: Heart (1 h p.i.) [% ID/g]	Biodistribution: Intestine (1 h p.i.) [% ID/g]	Biodistribution: LNCaP tumor (1 h p.i.) [% ID/g]	Biodistribution: Liver (1 h p.i.) [% ID/g]	Biodistribution: Lungs (1 h p.i.) [% ID/g]	Biodistribution: Muscle (1 h p.i.) [% ID/g]	Biodistribution: Pancreas (1 h p.i.) [% ID/g]	Biodistribution: Salivary gland (1 h p.i.) [% ID/g]	Biodistribution: Seminal gland (1 h p.i.) [% ID/g]	Biodistribution: Spleen (1 h p.i.) [% ID/g]	Biodistribution: Stomach (1 h p.i.) [% ID/g]	Biodistribution: Testes (1 h p.i.) [% ID/g]	Biodistribution: Thyroid (1 h p.i.) [% ID/g]	Biodistribution: Urine (1 h p.i.) [% ID/g]	Biodistribution: kidney (1 h p.i.) [% ID/g]	Structure (SMILES)	further results
5.96	19.40	1.01	0.30	2.74	4.13	1.93	9.19	4.07	8.79	1.48	1.89	3.24	2.55	1.90	0.59	2.65	4.11	104.40	14.01	O=C([O-])CN1CCN(CC(=O)[O-])CCN(CC(=O)NCCCCC(NC(=O)CNC(=O)CCCc2ccc([N+](=O)[O-])cc2)C(=O)NCC(=O)NCC2CCC(C(=O)NC(Cc3c4ccccc4cc4ccccc34)C(=O)NCCCCC(NC(=O)NC(CC(F)C(=O)O)C(=O)O)C(=O)O)CC2)CCN(CC(=O)[O-])CC1.[68Ga+3] (centres unmarked) [^68Ga-CCZ02025] ({Butanoyl(4-(4-NO2Ph))}-G[ξK](DOTA)G[X1][ξAla(9-anthryl)]-X2)	Biodistribution: Adrenal gland (3 h p.i.): 4.26 % ID/g; Biodistribution: Blood (3 h p.i.): 13.83 % ID/g; Biodistribution: Bone (3 h p.i.): 1.27 % ID/g; Biodistribution: Brain (3 h p.i.): 0.22 % ID/g; Biodistribution: Fat (3 h p.i.): 1.79 % ID/g; Biodistribution: Heart (3 h p.i.): 2.86 % ID/g; Biodistribution: Intestine (3 h p.i.): 1.12 % ID/g; Biodistribution: LNCaP tumor (3 h p.i.): 18.79 % ID/g; Biodistribution: Liver (3 h p.i.): 3.21 % ID/g; Biodistribution: Lungs (3 h p.i.): 5.21 % ID/g; Biodistribution: Muscle (3 h p.i.): 0.95 % ID/g; Biodistribution: Pancreas (3 h p.i.): 1.13 % ID/g; Biodistribution: Salivary gland (3 h p.i.): 2.47 % ID/g; Biodistribution: Seminal gland (3 h p.i.): 1.83 % ID/g; Biodistribution: Spleen (3 h p.i.): 1.17 % ID/g; Biodistribution: Stomach (3 h p.i.): 0.57 % ID/g; Biodistribution: Testes (3 h p.i.): 2.80 % ID/g; Biodistribution: Thyroid (3 h p.i.): 2.41 % ID/g; Biodistribution: Urine (3 h p.i.): 101.55 % ID/g; Biodistribution: kidney (3 h p.i.): 9.90 % ID/g
3.28	15.78	0.92	0.25	1.52	3.19	1.46	11.16	2.98	5.90	1.07	1.34	2.19	0.72	1.28	0.46	1.77	2.54	177.03	11.93	COc1ccc(CCCC(=O)NCC(=O)NC(CCCCNC(=O)CN2CCN(CC(=O)[O-])CCN(CC(=O)[O-])CCN(CC(=O)[O-])CC2)CC(=O)NCC2CCC(C(=O)NC(Cc3c4ccccc4cc4ccccc34)C(=O)NCCCCC(NC(=O)NC(CCCC(=O)O)C(=O)O)C(=O)O)CC2)cc1.[68Ga+3] (centres unmarked) [^68Ga-CCZ02015]	Biodistribution: Adrenal gland (3 h p.i.): 3.36 % ID/g; Biodistribution: Blood (3 h p.i.): 10.81 % ID/g; Biodistribution: Bone (3 h p.i.): 1.20 % ID/g; Biodistribution: Brain (3 h p.i.): 0.19 % ID/g; Biodistribution: Fat (3 h p.i.): 1.04 % ID/g; Biodistribution: Heart (3 h p.i.): 2.55 % ID/g; Biodistribution: Intestine (3 h p.i.): 1.17 % ID/g; Biodistribution: LNCaP tumor (3 h p.i.): 22.60 % ID/g; Biodistribution: Liver (3 h p.i.): 2.13 % ID/g; Biodistribution: Lungs (3 h p.i.): 4.65 % ID/g; Biodistribution: Muscle (3 h p.i.): 1.13 % ID/g; Biodistribution: Pancreas (3 h p.i.): 1.10 % ID/g; Biodistribution: Salivary gland (3 h p.i.): 2.18 % ID/g; Biodistribution: Seminal gland (3 h p.i.): 1.63 % ID/g; Biodistribution: Spleen (3 h p.i.): 1.01 % ID/g; Biodistribution: Stomach (3 h p.i.): 0.84 % ID/g; Biodistribution: Testes (3 h p.i.): 2.07 % ID/g; Biodistribution: Thyroid (3 h p.i.): 2.09 % ID/g; Biodistribution: Urine (3 h p.i.): 84.38 % ID/g; Biodistribution: kidney (3 h p.i.): 10.94 % ID/g
